Assay results published in US8258169B2, “Pyrazole-4-N-alkoxycarboxamides as microbiocides” (Syngenta Crop Protection, LLC, priority 2008, dated 2012).

Row | melting point [°C] | SMILES
1 | 111 to 114 | CCON(C(=O)c1cn(C)nc1C(F)F)C(C)Cc1c(Cl)cc(Cl)cc1Cl (centres unmarked) [Compound 1.032, 3-difluoromethyl-1-methyl-1H-pyrazole-4-carboxylic acid ethoxy-[1-methyl-2-(2,4,6-trichlorophenyl)-ethyl]-amide]
2 | 95 to 96 | CON(CCCc1c(Cl)cc(Cl)cc1Cl)C(=O)c1cn(C)nc1C(F)F [Compound 2.040, 3-difluoromethyl-1-methyl-1H-pyrazole-4-carboxylic acid methoxy-[3-(2,4,6-trichloro-phenyl)-propyl]-amide]
